Assay results as given in PubChem BioAssay (NCI).
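The compound was tested at five concentrations on cells cultured in 96-well plates, with a 48-hour exposure period. Here, GI50 denotes the concentration required for 50% inhibition of growth. The concentration for full growth arrest is given as TGI.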

Experiments:
Test in all cases: NCI-60 cell line screen, 48 h
SN12C renal = tested on: SN12C renal
HL-60(TB) leukemia = tested on: HL-60(TB) leukemia
T-47D breast = tested on: T-47D breast
SK-MEL-28 melanoma = tested on: SK-MEL-28 melanoma
SK-MEL-5 melanoma = tested on: SK-MEL-5 melanoma
DU-145 prostate = tested on: DU-145 prostate
COLO 205 colon = tested on: COLO 205 colon
HS 578T breast = tested on: HS 578T breast
SNB-19 CNS = tested on: SNB-19 CNS
BT-549 breast = tested on: BT-549 breast
NCI-H226 lung = tested on: NCI-H226 lung
786-0 renal = tested on: 786-0 renal
HCT-15 colon = tested on: HCT-15 colon
MDA-MB-435 = tested on: MDA-MB-435
K-562 leukemia = tested on: K-562 leukemia
HT29 colon = tested on: HT29 colon
MOLT-4 leukemia = tested on: MOLT-4 leukemia
HOP-62 NSCLC = tested on: HOP-62 NSCLC
RPMI-8226 leukemia = tested on: RPMI-8226 leukemia
HOP-92 NSCLC = tested on: HOP-92 NSCLC
NCI/ADR-RES ovarian = tested on: NCI/ADR-RES ovarian
UO-31 renal = tested on: UO-31 renal
OVCAR-4 ovarian = tested on: OVCAR-4 ovarian
MALME-3M melanoma = tested on: MALME-3M melanoma
NCI-H23 lung = tested on: NCI-H23 lung
SK-OV-3 ovarian = tested on: SK-OV-3 ovarian
OVCAR-5 ovarian = tested on: OVCAR-5 ovarian
IGROV1 ovarian = tested on: IGROV1 ovarian

Q: With COc1ccc(/C=N\NC(=O)c2ccc3nc(-c4ccc(Br)cc4)[nH]c3c2)cc1 as the molecule, how does the GI50 (SN12C renal) read?
A: 2.4 µM

Q: What about the TGI (SN12C renal) of the same molecule?
A: 5.94 µM

Q: And the GI50 (HL-60(TB) leukemia)?
A: 36.6 µM

Q: What about the TGI (HL-60(TB) leukemia) of the same molecule?
A: > 100 µM

Q: What about the GI50 (T-47D breast) of the same molecule?
A: 1.85 µM

Q: And the TGI (T-47D breast)?
A: 4.31 µM

Q: What about the GI50 (SK-MEL-28 melanoma) of the same molecule?
A: 1.98 µM

Q: What about the TGI (SK-MEL-28 melanoma) of the same molecule?
A: 4.1 µM

Q: What about the GI50 (SK-MEL-5 melanoma) of the same molecule?
A: 2.03 µM

Q: What about the TGI (SK-MEL-5 melanoma) of the same molecule?
A: 4.38 µM

Q: What about the GI50 (DU-145 prostate) of the same molecule?
A: 3.07 µM

Q: What about the TGI (DU-145 prostate) of the same molecule?
A: 9.39 µM

Q: And the GI50 (COLO 205 colon)?
A: 1.94 µM

Q: And the TGI (COLO 205 colon)?
A: 5.36 µM

Q: What about the GI50 (HS 578T breast) of the same molecule?
A: 2.34 µM

Q: What about the TGI (HS 578T breast) of the same molecule?
A: 5.47 µM

Q: And the GI50 (SNB-19 CNS)?
A: 2.81 µM

Q: And the TGI (SNB-19 CNS)?
A: 7.39 µM

Q: And the GI50 (BT-549 breast)?
A: 2.64 µM

Q: What about the TGI (BT-549 breast) of the same molecule?
A: 7.06 µM

Q: What about the GI50 (NCI-H226 lung) of the same molecule?
A: 2.65 µM

Q: And the TGI (NCI-H226 lung)?
A: 16.8 µM

Q: What about the GI50 (786-0 renal) of the same molecule?
A: 2.05 µM

Q: And the TGI (786-0 renal)?
A: 4.2 µM

Q: What about the GI50 (HCT-15 colon) of the same molecule?
A: 3.7 µM

Q: What about the TGI (HCT-15 colon) of the same molecule?
A: 22.9 µM

Q: What about the GI50 (MDA-MB-435) of the same molecule?
A: 2.91 µM

Q: And the TGI (MDA-MB-435)?
A: 8.11 µM

Q: And the GI50 (K-562 leukemia)?
A: 2.89 µM

Q: What about the TGI (K-562 leukemia) of the same molecule?
A: 10.4 µM

Q: And the GI50 (HT29 colon)?
A: 1.7 µM

Q: And the TGI (HT29 colon)?
A: 3.3 µM

Q: What about the GI50 (MOLT-4 leukemia) of the same molecule?
A: 4.3 µM

Q: And the TGI (MOLT-4 leukemia)?
A: > 100 µM

Q: And the GI50 (HOP-62 NSCLC)?
A: 1.87 µM

Q: And the TGI (HOP-62 NSCLC)?
A: 4.21 µM

Q: What about the GI50 (RPMI-8226 leukemia) of the same molecule?
A: 2.12 µM

Q: What about the TGI (RPMI-8226 leukemia) of the same molecule?
A: 8.38 µM

Q: What about the GI50 (HOP-92 NSCLC) of the same molecule?
A: 1.9 µM

Q: What about the TGI (HOP-92 NSCLC) of the same molecule?
A: 4.65 µM

Q: What about the GI50 (NCI/ADR-RES ovarian) of the same molecule?
A: 17.8 µM

Q: And the TGI (NCI/ADR-RES ovarian)?
A: > 100 µM

Q: And the GI50 (UO-31 renal)?
A: 1.7 µM

Q: What about the TGI (UO-31 renal) of the same molecule?
A: 5.44 µM

Q: What about the GI50 (OVCAR-4 ovarian) of the same molecule?
A: 2.14 µM

Q: And the TGI (OVCAR-4 ovarian)?
A: 5.16 µM

Q: And the GI50 (MALME-3M melanoma)?
A: 1.76 µM

Q: What about the TGI (MALME-3M melanoma) of the same molecule?
A: 3.79 µM

Q: And the GI50 (NCI-H23 lung)?
A: 2.43 µM

Q: What about the TGI (NCI-H23 lung) of the same molecule?
A: 6.05 µM

Q: What about the GI50 (SK-OV-3 ovarian) of the same molecule?
A: 2.37 µM

Q: And the TGI (SK-OV-3 ovarian)?
A: 15.5 µM

Q: What about the GI50 (OVCAR-5 ovarian) of the same molecule?
A: 2.68 µM

Q: What about the TGI (OVCAR-5 ovarian) of the same molecule?
A: 7.27 µM

Q: What about the GI50 (IGROV1 ovarian) of the same molecule?
A: 2.22 µM

Q: What about the TGI (IGROV1 ovarian) of the same molecule?
A: 7.24 µM
